Test results as given in US8362004B2, “Piperazine analogs as broad-spectrum influenza antivirals” (priority 2010, dated 2013).
Read-outs that look alike come from different tables or passages of the source.

How the values were obtained:
[1] = tested on: influenza A/Brisbane/10/2007; experiment: Antiviral assay in MDCK cells, viral neuraminidase (MUNANA) readout, A/H3N2/Brisbane; type: cell-based; details: read-out: A/H3N2/Brisbane Activity
influenza A/WSN/33 = experiment: Antiviral assay in MDCK cells, viral neuraminidase (MUNANA) readout, A/H1N1/WSN; type: cell-based; details: read-out: A/H1N1/WSN Activity
[2] = tested on: Influenza A/Solomon Islands/3/06; experiment: Antiviral assay in MDCK cells, viral neuraminidase (MUNANA) readout, A/H1N1/Solomon Islands; type: cell-based; details: read-out: A/H1N1/Solomon Islands Activity
A/H5N1/Gull_PA = experiment: microbe, parasite or virus in culture; type: cell-based, influenza A
A/H5N1/Duck_PA = experiment: microbe, parasite or virus in culture; type: cell-based, influenza A
A/H5N1/Duck_MN = experiment: microbe, parasite or virus in culture; type: cell-based, influenza A
[3] = Influenza A virus, H3N2, MDCK, 48 h
[4] = Influenza A virus, H1N1, MDCK, 48 h
[5] = MDCK cells, MOI 0.001, 48 hrs post infection, viral NA activity
[6] = Influenza A virus, H5N1, read-out: A/H5N1/Gull_PA
[7] = Influenza A virus, H5N1, read-out: A/H5N1/Duck_PA
[8] = Influenza A virus, H5N1, read-out: A/H5N1/Duck_MN

SMILES	EC50 [1, 5] [µM]	EC50 (influenza A/WSN/33; [5]) [µM]	EC50 [2, 5] [µM]	also measured
COc1ccccc1-c1nnn(C)c1C(=O)N1CCN(c2cc(NC(=O)c3ccc(N4CCCS4(=O)=O)cc3)c(Br)cc2Cl)CC1 [Example 120, N-(4-chloro-5-(4-(4-(2-methoxyphenyl)-1-methyl-1H-1,2,3-triazole-5-carbonyl)piperazin-1-yl)-2-bromophenyl)-4-(1,1-dioxidoisothiazolidin-2-yl)benzamide]				EC50 [1, 3]: < 10 µM; EC50 (influenza A/WSN/33; Influenza A virus, MDCK, 48 h): < 1 µM; EC50 [2, 4]: < 1 µM
COc1ccc(C(=O)Nc2cc(N3CCN(C(=O)c4c(-c5ccccc5OC)ncn4C)CC3)c(Cl)cc2[N+](=O)[O-])cc1 [Example 102]	< 10	< 0.1	< 1	
COc1ccc(C(=O)Nc2cc(N3CCN(C(=O)c4c(-c5ccccc5OC)noc4C)CC3)c(Cl)cc2[N+](=O)[O-])cc1 [Example 1, N-(4-chloro-5-(4-(3-(2-methoxyphenyl)-5-methylisoxazole-4-carbonyl)piperazin-1-yl)-2-nitrophenyl)-4-methoxybenzamide]				EC50 [1, 3]: < 1 µM; EC50 (influenza A/WSN/33; Influenza A virus, MDCK, 48 h): < 0.1 µM; EC50 [2, 4]: < 0.1 µM
COc1ccccc1-c1noc(C)c1C(=O)N1CCN(c2cc(NC(=O)C3CCC3)c([N+](=O)[O-])cc2Cl)CC1 [Example 9]	< 10	< 0.1	< 1	
Cc1c[nH]c(-c2ccccc2Cl)c1C(=O)N1CCN(c2cc(NC(=O)c3ccc(N(C)C)cc3)c([N+](=O)[O-])cc2Cl)CC1 [Example 72]	< 1	< 0.1	< 0.1	
COc1ccccc1-c1noc(C)c1C(=O)N1CCN(c2cc(NC(=O)c3ccc(N(C)C)cc3)c(C#N)cc2Cl)CC1 [Example 65]	< 10	< 0.1	< 1	
COc1ccccc1-c1noc(C)c1C(=O)N1CCN(c2cc(NC(=O)c3ccc(N(C)C)cc3)c(Cl)cc2Cl)CC1 [Example 55]	< 1	< 0.1	< 0.1	
COc1ccccc1-c1noc(C)c1C(=O)N1CCN(c2cc(NC(=O)c3nccs3)c(Cl)cc2Cl)CC1 [Example 56]	< 10	< 1	< 10	
COc1ccc(C(=O)Nc2cc(N3CCN(C(=O)c4c(-c5cccc6ccccc56)noc4C)CC3)c(Cl)cc2[N+](=O)[O-])cc1 [Example 77, N-(4-chloro-5-(4-(5-methyl-3-(naphthalen-1-yl)isoxazole-4-carbonyl)piperazin-1-yl)-2-nitrophenyl)-4-methoxybenzamide]				EC50 (A/H5N1/Gull_PA; [6]): < 0.1 µM; EC50 (A/H5N1/Duck_PA; [7]): < 1 µM; EC50 (A/H5N1/Duck_MN; [8]): < 1 µM
COc1ccccc1-c1noc(C)c1C(=O)N1CCN(c2cc(NC(=O)c3ccc(SC)cc3)c([N+](=O)[O-])cc2Cl)CC1 [Example 11]				EC50 (A/H5N1/Gull_PA; read-out: A/H5N1/Gull_PA): < 0.1 µM; EC50 (A/H5N1/Duck_PA; read-out: A/H5N1/Duck_PA): < 0.1 µM; EC50 (A/H5N1/Duck_MN; read-out: A/H5N1/Duck_MN): < 1 µM
C=Cc1cc(Cl)c(N2CCN(C(=O)c3c(-c4ccccc4OC)noc3C)CC2)cc1NC(=O)c1ccc(N(C)C)cc1 [Example 125, N-(4-chloro-5-(4-(3-(2-methoxyphenyl)-5-methylisoxazole-4-carbonyl)piperazin-1-yl)-2-vinylphenyl)-4-(dimethylamino)benzamide]				EC50 [1, 3]: < 10 µM; EC50 (influenza A/WSN/33; Influenza A virus, MDCK, 48 h): < 1 µM; EC50 [2, 4]: < 1 µM
COc1ccccc1-n1ncc(C)c1C(=O)N1CCN(c2cc(NC(=O)c3ccc(N(C)C)cc3)c([N+](=O)[O-])cc2Cl)CC1 [Example 73]	< 1	< 1	< 0.1	
COc1ccccc1-c1noc(CF)c1C(=O)N1CCN(c2cc(NC(=O)c3ccc(N(C)C)cc3)c(Cl)cc2Cl)CC1 [Example 69, N-(2,4-dichloro-5-(4-(5-(fluoromethyl)-3-(2-methoxyphenyl)isoxazole-4-carbonyl)piperazin-1-yl)phenyl)-4-(dimethylamino)benzamide]				EC50 [1, 3]: < 10 µM; EC50 (influenza A/WSN/33; Influenza A virus, MDCK, 48 h): < 1 µM; EC50 [2, 4]: < 1 µM
COc1ccccc1-c1noc(C)c1C(=O)N1CCN(c2cc(NC(=O)c3ccc(N4CCCC4=O)cc3)c([N+](=O)[O-])cc2Cl)CC1 [Example 47, N-(4-chloro-5-(4-(3-(2-methoxyphenyl)-5-methylisoxazole-4-carbonyl)piperazin-1-yl)-2-nitrophenyl)-4-(2-oxopyrrolidin-1-yl)benzamide]				EC50 [1, 3]: < 1 µM; EC50 (influenza A/WSN/33; Influenza A virus, MDCK, 48 h): < 0.1 µM; EC50 [2, 4]: < 0.1 µM
COc1ccccc1-c1noc(C)c1C(=O)N1CCN(c2cc(NC(=O)c3ccc(-c4nnc(C)o4)cc3)c([N+](=O)[O-])cc2Cl)CC1 [Example 38]	< 0.1	< 1	< 1	
CCOc1ccc(C(=O)Nc2cc(N3CCN(C(=O)c4c(-c5ccccc5OC)noc4C)CC3)c(Cl)cc2[N+](=O)[O-])cc1 [Example 15]				EC50 (A/H5N1/Gull_PA; read-out: A/H5N1/Gull_PA): < 0.1 µM; EC50 (A/H5N1/Duck_PA; read-out: A/H5N1/Duck_PA): < 1 µM; EC50 (A/H5N1/Duck_MN; read-out: A/H5N1/Duck_MN): < 1 µM
COc1ccccc1-c1ncn(C)c1C(=O)N1CCN(c2cc(NC(=O)c3ccc(N(C)C)cc3)c([N+](=O)[O-])cc2Cl)CC1 [Example 81]	< 10	< 0.1	< 0.1	

SMILES	EC50 [1, 5] [µM]	EC50 (influenza A/WSN/33; [5]) [µM]	EC50 [2, 5] [µM]	also measured
Cc1onc(-c2cccc3ccccc23)c1C(=O)N1CCN(c2cc(NC(=O)c3nccs3)c([N+](=O)[O-])cc2Cl)CC1 [Example 78, N-(4-chloro-5-(4-(5-methyl-3-(naphthalen-1-yl)isoxazole-4-carbonyl)piperazin-1-yl)-2-nitrophenyl)thiazole-2-carboxamide]				EC50 (A/H5N1/Gull_PA; [6]): < 0.1 µM; EC50 (A/H5N1/Duck_PA; [7]): < 1 µM; EC50 (A/H5N1/Duck_MN; [8]): < 1 µM
COc1ccccc1-c1noc(C)c1C(=O)N1CCN(c2cc(NC(=O)c3ccc(N(C)C)cc3)c(C)cc2Br)CC1 [Example 54]	< 10	< 1	< 1	
COc1ccccc1-c1nnn(C)c1C(=O)N1CCN(c2cc(NC(=O)c3ccc(N4CCCC4=O)cc3)c([N+](=O)[O-])cc2C#N)CC1 [Example 122, N-(4-cyano-5-(4-(4-(2-methoxyphenyl)-1-methyl-1H-1,2,3-triazole-5-carbonyl)piperazin-1-yl)-2-nitrophenyl)-4-(2-oxopyrrolidin-1-yl)benzamide]				EC50 [1, 3]: < 1 µM; EC50 (influenza A/WSN/33; Influenza A virus, MDCK, 48 h): < 1 µM; EC50 [2, 4]: < 1 µM
COc1ccccc1-c1noc(C)c1C(=O)N1CCN(c2cc(NC(=O)c3ccc(C)cc3)c([N+](=O)[O-])cc2Cl)CC1 [Example 24]	< 10	< 0.1	< 0.1	
COc1ccccc1-c1nnn(C)c1C(=O)N1CCN(c2cc(NC(=O)c3ccc(N4CCCC4=O)cc3)c([N+](=O)[O-])cc2Cl)CC1 [Example 84, N-(4-chloro-5-(4-(4-(2-methoxyphenyl)-1-methyl-1H-1,2,3-triazole-5-carbonyl)piperazin-1-yl)-2-nitrophenyl)-4-(2-oxopyrrolidin-1-yl)benzamide]				EC50 [1, 3]: < 0.1 µM; EC50 (influenza A/WSN/33; Influenza A virus, MDCK, 48 h): < 0.1 µM; EC50 [2, 4]: < 0.1 µM
COc1ccccc1-c1ncn(C)c1C(=O)N1CCN(c2cc(NC(=O)c3ccc(N(C)C)cc3)c([N+](=O)[O-])cc2C#N)CC1 [Example 124]	< 0.1	< 0.1	< 0.1	
COc1ccccc1-c1n[nH]c(C)c1C(=O)N1CCN(c2cc(NC(=O)c3ccc(N(C)C)cc3)c([N+](=O)[O-])cc2Cl)CC1 [Example 70, N-(4-chloro-5-(4-(3-(2-methoxyphenyl)-5-methyl-1H-pyrazole-4-carbonyl)piperazin-1-yl)-2-nitrophenyl)-4-(dimethylamino)benzamide]				EC50 [1, 3]: < 10 µM; EC50 (influenza A/WSN/33; Influenza A virus, MDCK, 48 h): < 0.1 µM; EC50 [2, 4]: < 1 µM
COc1ccccc1-c1noc(C)c1C(=O)N1CCN(c2cc(NC(=O)c3ccc(-n4cncn4)cc3)c([N+](=O)[O-])cc2Cl)CC1 [Example 37]	< 1	< 0.1	< 0.1	
COc1ccccc1-c1nnn(C)c1C(=O)N1CCN(c2cc(NC(=O)c3ccc(N4CCCS4(=O)=O)cc3)c([N+](=O)[O-])cc2Cl)CC1 [Example 92]	< 1	< 0.1	< 0.1	
COc1ccccc1-c1noc(C)c1C(=O)N1CCN(c2cc(NC(=O)c3ccc(N(C)S(C)(=O)=O)cc3)c([N+](=O)[O-])cc2Cl)CC1 [Example 35]	< 1	< 0.1	< 0.1	
COc1ccccc1-c1noc(C)c1C(=O)N1CCN(c2cc(NC(=O)c3ccco3)c([N+](=O)[O-])cc2Cl)CC1 [Example 8]				EC50 (A/H5N1/Gull_PA; read-out: A/H5N1/Gull_PA): < 0.1 µM; EC50 (A/H5N1/Duck_PA; read-out: A/H5N1/Duck_PA): < 0.1 µM; EC50 (A/H5N1/Duck_MN; read-out: A/H5N1/Duck_MN): < 1 µM
COc1ccccc1-c1noc(C)c1C(=O)N1CCN(c2cc(NC(=O)c3ccc(OC(F)F)cc3)c([N+](=O)[O-])cc2Cl)CC1 [Example 13]				EC50 (A/H5N1/Gull_PA; read-out: A/H5N1/Gull_PA): < 0.1 µM; EC50 (A/H5N1/Duck_PA; read-out: A/H5N1/Duck_PA): < 1 µM; EC50 (A/H5N1/Duck_MN; read-out: A/H5N1/Duck_MN): < 1 µM
COc1ccc(C(=O)Nc2cc(N3CCN(C(=O)c4c(-c5ccccc5OC)noc4C)CC3)c(C#N)cc2Cl)cc1 [Example 66]	< 10	< 10	< 10	
COc1ccccc1-c1noc(C)c1C(=O)N1CCN(c2cc(NC(=O)c3ccc(N(C)C)cc3)c([N+](=O)[O-])cc2C#N)CC1 [Example 68]	< 0.1	< 1	< 0.1	
COc1ccc(C(=O)Nc2nc(N3CCN(C(=O)c4c(-c5ccccc5OC)noc4C)CC3)c(Cl)cc2[N+](=O)[O-])cc1 [Example 43]	< 0.1	< 1	< 1	
COc1ccccc1-c1noc(C)c1C(=O)N1CCN(c2nc(NC(=O)c3ccc(N(C)C)cc3)c(Cl)cc2Cl)CC1 [Example 52]	< 10	< 1	< 1	
